In patent US20240207446A1, “M6A-COUPLED EFFECTOR PROTEIN EXPRESSION SYSTEM AND METHODS OF MAKING AND USING SAME” (Duke University, priority 2022, published 2024):
Entries after “also recorded” stand apart in the source; their conditions may differ.

Legend:
[1] = tested on: m^6A in cellular mRNA, HEK293T cells; assay: Mass spectrometry of m^6A in purified mRNA; format: cell-based, human
Procedure: Mass spectrometry analysis. Total RNA was extracted as described above, and mRNA was purified using two rounds of oligo(dT) purification with Dynabeads oligo-(dT) mRNA purification kit (Invitrogen), followed by 2 rounds of rRNA depletion using NEBNext rRNA Depletion Kit (V2.0, NEB), and an additional two rounds of oligo(dT) purification with Dynabeads oligo-(dT) mRNA purification kit (Invitrogen). All mRNA purification steps were performed following the manufacturer's instructions. Purified mRNA quality was checked using a Bioanalyzer high sensitivity RNA analysis 6000 pico kit (Agilent). For mass spectrometry analysis, 100-200 ng of purified mRNA was incubated with 2 U of Nuclease P1 (Sigma) with 2.5 mM ZnCl and 25 mM NaCl at 37° C. for 2 hours. mRNA samples were treated with 5 U of antarctic phosphatase (NEB) for 2 h at 37° C. Samples were then processed using the Xevo TQ-S mass spectrometry system. All nucleosides were quantified by retention time and ion mass transitions of 268.2 to 133.2 (A) and 282.2 to 150.1 (m^6A). Data were plotted as a percentage of m^6A relative to A. At least 2 biological replicates were performed for each sample.

[2] = tested on: m^6A sensor sequence and endogenous ACTB A1222; assay: RT-qPCR-based m^6A quantification in HEK293T cells; format: cell-based, human; conditions: METTL3 degron cells, auxin (FIG. 3F)
Procedure: m^6A detection using RT-qPCR. RNA was extracted and treated with DNase I as described above, and a relative quantification of m^6A by RT-qPCR was adapted from^28. 4 reverse transcription reactions were set up using 150 ng of RNA for each: 2 reactions using BstI polymerase (NEB), and 2 reactions using Superscript reverse transcriptase enzyme (Fisher Scientific). For each reverse transcriptase, one reaction included a primer adjacent (+) to the site being tested (reverse compliment reverse oligo immediately downstream of the site), and the other reaction included a primer that is non-adjacent (−) to the site. The BstI reaction consisted of 10 U BstI polymerase, […], 500 nM oligos (adjacent (+) or non-adjacent (−)), in 1× ThermoPol Buffer. Reactions were incubated in a thermal cycler with the following cycling settings: 3 minutes at 25° C., 30 minutes at 50° C., and 3 minutes at 85° C. Superscript III (SSIII) reactions consisted of 200 U Superscript III, […], 25 mM MgCl2+, 10 mM dNTPs, 500 nM oligos (adjacent or non-adjacent), 2 μL 10× FS Buffer, and water up to 20 μL. […] Threshold cycle values were obtained and relative m^6A was calculated using the formula: 2−(CT Bst(−)−Ct SSIII(−)/Ct Bst(+)−Ct SSIII(+)). […] Error bars represent standard deviation, and statistical significance was calculated using a two-way t-test assuming unequal variance.

m^6A sensor sequence = assay: RT-PCR/Sanger sequencing of C-to-U editing of the m^6A sensor sequence in HEK293T cells; format: cell-based, human
Procedure: (§1) Sanger sequencing and RT-qPCR. Cells were dissociated in culture using TrypLE (Gibco) treatment for 2 minutes and collected by centrifugation (6,000 rpm, 10 minutes, 4° C.). RNA was extracted using the RNA easy Plus Mini kit (Qiagen) according to the manufacturer's protocol. Extracted RNA was purified for genomic and plasmid DNA contamination by incubation with 1 μL DNase I at 37° C. for 30 minutes, and purified RNA was precipitated in 2.5 volumes of isopropanol overnight. RNA quantification was performed using the Qubit 4.0 fluorometer following the Qubit RNA broad range assay kit (Invitrogen). 500 ng of RNA was used for reverse transcription with the iScript reverse transcription supermix (Biorad) following the manufacturer's protocol. PCR was then used to […] amplify the region of interest in the m^6A sensor mRNA sequence (see Table 2). PCR products were column purified before Sanger sequencing using QiaQuick spin columns (Qiagen) and 10 μL reactions were submitted for standard amplicon sequencing (Azenta Life Sciences). C-to-U editing percentage was calculated using the EditR web server 59. To measure gene expression using gene-specific oligos, qPCR was performed using iTaq universal SYBR green Supermix (Biorad). 20 μL reactions were set up with 1 μL of cDNA for each sample, in 3 technical replicates. qPCR was performed on a Biorad CFX Duet real-time PCR instrument, and results were analyzed by normalizing threshold cycle of each target gene to 18S rRNA according to established methods^60. At least 2 biological replicates were used for each sample, and results are plotted as mean relative fold expression comparing treatment to the control group as indicated. Error bars represent standard deviation, and statistical significance was calculated using a two-way t-test assuming unequal variance.

[3] = tested on: METTL3 (m^6A methylation of the GEMS reporter mRNA), HEK293T cells; assay: Western blot and densitometry (EGFP, EGFP-DHFR) in HEK293T cells expressing GEMS; format: cell-based, human
Procedure: Western blotting. Cells were dissociated in culture plates using TrypLE (Gibco) and collected by centrifugation (6,000 rpm, 10 minutes, 4° C.). Cell pellets were resuspended in 150 μL chilled standard RIPA buffer (1% Triton X-100, 0.1% Sodium Deoxycholate, 0.1% SDS) prepared with the addition of Complete Mini protease inhibitor (Sigma Aldrich) immediately before use. Cells were resuspended and incubated on ice in RIPA buffer for 30 minutes. Cell lysates were cleared by centrifugation (13,000 rpm, 10 minutes, 4° C.) and mixed in a 1:1 ratio with NuPage LDS sample buffer (Invitrogen) with 5% Beta-Mercaptoethanol (Sigma). Samples were separated by gel electrophoresis on NuPage 4-12% Bis-Tris SDS-PAGE gels (Invitrogen), then transferred onto PVDF membranes (Amersham) using semi-dry transfer (Trans-Blot Turbo, Biorad). Membranes were blocked with 4% milk powder in 0.1% PBST and incubated with the appropriate primary antibody overnight at 4° C. Membranes were then washed with 0.1% PBST and incubated for 1 hour at room temperature in secondary antibody. Blots were washed and incubated in chemiluminescent ECL reagent solution (Amersham) then imaged in a ChemiDoc MP imaging system (BioRad) under chemiluminescent and colorimetric light. In western blot images, cyclophilin A is shown as a loading control and all western blots are representative of a minimum of 3 independent biological replicates. The following antibodies were used in this study: GFP tag Polyclonal antibody (Proteintech, 50430-2-AP). Anti-HA rabbit monoclonal antibody (Cell Signaling, 3724). Anti-Cyclophilin A antibody (Cell Signaling, 2175S). Anti-DsRed-Express2 Monoclonal Antibody (Fisher Scientific, CF180014). Anti-METTL3 antibody (abcam, ab195352). Anti-SOCS2 antibody (abcam, ab109245). Anti-p53 (7F5) Rabbit monoclonal antibody (Cell Signaling, 2527S). Recombinant Anti-JAK2 Antibody (abcam, ab108596). Recombinant Anti-STAT5 (phosphorylated Y694) (abcam, ab32364). Anti-STAT5 antibody (Cell Signaling, 25656S). Secondary antibodies used in this study: Goat Anti-Rabbit IgG HRP (Abcam, ab6721), Goat anti-mouse IgG HRP (Fisher Scientific, 62-6520).
For densitometry analysis, western blot images were quantified using ImageJ software 58. EGFP band intensity was normalized to either EGFP-DHFR or (EGFP+EGFP-DHFR) as indicated in each experiment. Similar densitometry analysis was used to measure total protein production (EGFP+EGFP-DHFR), normalized to the Cyclophilin A loading control. At least two replicates were used for each western blot quantification analysis. Bars are plotted as mean intensity ratio and error bars represent standard deviation.

[4] = tested on: METTL3 (m^6A methylation of the GEMS reporter mRNA), HEK293T cells; assay: GEMS EGFP fluorescence microscopy / quantitative microscopy in HEK293T cells; format: cell-based, human
Procedure: Plasmid Transfection. Transfections were performed using Fugene HD (Promega) according to the manufacturer's instructions. For METTL3 inhibition experiments, cells were treated with 10 μM or 30 μM of STM2457 (MedChemExpress) for 16 hours prior to transfection. Cells were treated with 0.1% DMSO (VWR Life Science) as a control. For experiments using METTL3 degron cells, 0.1 mg/mL of auxin or equivalent volume of H2O (control) was added to the cells for 24 hours prior to plasmid transfection.
Microscopy. All images were obtained using a Leica DMi8 inverted fluorescence microscope. Images were processed using the Leica LAS X software. 4-5 fields of view were obtained per sample, and representative images were selected for each experiment.
Quantitative Microscopy. HEK293T cells were plated in 10 cm cell culture-treated dishes at a density of 2.2×10^6 cells per plate and allowed to grow overnight. Cells were then treated with 30 μM of STM2457 or DMSO control for 16 hours. Cells were then transfected with the GEMS-PEST-DsRed plasmid and allowed to grow for an additional 16 hours. Prior to imaging, media was replaced with 1×PBS with 1 μg/mL Hoechst nuclear fluorescent stain (ThermoFisher Scientific) for 30 minutes. Cells were imaged using a Leica DMi8 fluorescence microscope. Images were analyzed by ImageJ image analysis software. First, fluorescence channels were separated and RGB fluorescence channels were converted to grayscale (16-bit). Binary image thresholds were set in relation to DsRed fluorescence signal and background noise was subtracted. Individual cells were selected, and pixel intensities were generated of each individual cell within the field of view. Similar binary image thresholding, cell selection, and intensity datasets were generated for the EGFP image channel. Data were analyzed by dividing EGFP signal intensity for each cell by average DsRed signal intensity. Data were plotted in JMP software (IMP 17.0, SAS Institute Inc.) by normalized EGFP signal intensity for each treatment. Boxplots represent interquartile range of the data and whiskers represent minimum and maximum data points excluding outliers. Statistical significance was calculated using a two-way t-test assuming unequal variance.

m^6A reporter mRNA = assay: RT-qPCR of m^6A reporter mRNA abundance in HEK293T cells; format: cell-based, human
Procedure: as §1

MOLM-13 cells = conditions: AML cell line with high levels of METTL3; cited from earlier work
Huh-7 cells = assay: RT-qPCR gene expression in Huh-7 cells; format: cell-based, human; conditions: increasing amounts of STM2457 (FIG. 9C)
Procedure: as §1, with “PCR products were column purified before Sanger sequencing using QiaQuick spin columns (Qiagen) and 10 μL reactions were submitted for standard amplicon sequencing (Azenta Life Sciences).” left out, “To measure gene expression using gene-specific oligos, qPCR was performed using iTaq universal SYBR green Supermix (Biorad).” left out, “At least 2 biological replicates were used for each sample, and results are plotted as mean relative fold expression comparing treatment to the control group as indicated.” left out

Compound: O=C(O)Cc1c[nH]c2ccccc12 [auxin]
- m^6A in purified mRNA, mass spectrometry ([1]; METTL3 degron cells, auxin-treated (FIG. 3A)): decrease in m^6A
- m^6A sensor sequence methylation, RT-qPCR [2]: decreased m^6A
- C-to-U editing of the m^6A sensor sequence (m^6A sensor sequence; METTL3 degron cells, auxin (FIG. 3E)): Editing is reduced
- total reporter mRNA protein production (EGFP+EGFP-DHFR) relative to cyclophilin A ([3]; METTL3 degron cells expressing GEMS (FIG. 3H)): no significant difference
- METTL3 and EGFP protein, western blot ([3]; METTL3 degron cells, auxin (FIG. 3C)): loss of METTL3 and EGFP
- EGFP/EGFP-DHFR ratio ([3]; METTL3 degron cells, auxin (FIG. 3D)): decrease in EGFP/EGFP-DHFR
- EGFP fluorescence from the GEMS system ([4]; HEK293T METTL3 degron cells, auxin (FIG. 3B)): reduced EGFP fluorescence
- m^6A reporter mRNA expression, RT-qPCR (m^6A reporter mRNA; METTL3 degron cells with and without auxin (FIG. 3G)): no significant difference

Compound: C[C@@H]1C[C@@H]([C@H](O)CC2CC(=O)NC(=O)C2)C(=O)[C@@H](C)C1 [cycloheximide]
- m^6A reporter mRNA levels (m^6A reporter mRNA; HEK293T with GEMS, cycloheximide 0-120 minutes (FIG. 3I)): no effect

Compound: STM2457
- proliferation and colony formation (MOLM-13 cells): reduced proliferation and colony formation
- m^6A in purified mRNA, mass spectrometry ([1]; HEK293T, STM2457 treatment (FIG. 5H)): depletion of m^6A
- C-to-U editing of the m^6A sensor sequence (m^6A sensor sequence; HEK293T, 30 μM STM2457, 24 h (FIG. 5J)): reduced C-to-U editing
- editing of the m^6A sensor sequence (m^6A sensor sequence; HEK293T, 10 or 30 μM STM2457 (FIG. 5G)): decreased editing with increasing amounts
- editing of the m^6A sensor sequence, GEMS with EGFP-PEST (m^6A sensor sequence; HEK293T, increasing amounts of STM2457 (FIG. 5N)): decreased editing with increasing amounts
- EGFP/EGFP-DHFR ratio, densitometry ([3]; HEK293T, 30 μM STM2457, 24 h (FIG. 5D)): reduced EGFP/EGFP-DHFR ratio
- production of EGFP protein, western blot ([3]; HEK293T, 10 or 30 μM STM2457 (FIG. 5F)): decreased production of EGFP protein with increasing doses
- EGFP protein, western blot ([3]; HEK293T, STM2457-treated (FIG. 5C)): decreased EGFP protein
- production of EGFP protein, western blot, GEMS with EGFP-PEST ([3]; HEK293T, increasing doses of STM2457 (FIG. 5M)): decreased production of EGFP protein with increasing doses
- EGFP fluorescence from the GEMS system ([4]; HEK293T, 30 μM STM2457, 24 h (FIG. 5A)): reduced
- EGFP fluorescence intensity, quantitative microscopy ([4]; HEK293T, 30 μM STM2457, EGFP normalized to DsRed (FIG. 5B)): significant reduction
- m^6A-coupled EGFP fluorescence ([4]; HEK293T, 10 or 30 μM STM2457, 24 h, DsRed internal control (FIG. 5E)): increased depletion
- EGFP signal, GEMS with EGFP-PEST ([4]; HEK293T, 10 or 30 μM STM2457, GEMS-EGFP-PEST, compared to GEMS-EGFP (FIG. 5L)): greater depletion at lower doses
- EGFP fluorescence / GEMS activity activated by dCas13-GEMS ([4]; HEK293T, STM2457 for 16 hours, then dCas13-GEMS and gRNAs (FIG. 8F)): abolished; also recorded: decreased
- SOCS2 mRNA expression, RT-qPCR (Huh-7 cells): dose-dependent increase
- abundance of the m^6A reporter mRNA (m^6A reporter mRNA; HEK293T, 30 μM STM2457 or DMSO (FIG. 5I)): no significant difference
